{"source": "paper PMC11811597", "about": "“Phenomics‐Based Discovery of Novel Orthosteric Choline Kinase Inhibitors” (Angewandte Chemie (International Ed. in English), 2025)", "biological_target": "T1, EHMT2 (G9a) (Homo sapiens, UniProt Q96KQ7)", "T1 sequence (Q96KQ7 1-1210)": "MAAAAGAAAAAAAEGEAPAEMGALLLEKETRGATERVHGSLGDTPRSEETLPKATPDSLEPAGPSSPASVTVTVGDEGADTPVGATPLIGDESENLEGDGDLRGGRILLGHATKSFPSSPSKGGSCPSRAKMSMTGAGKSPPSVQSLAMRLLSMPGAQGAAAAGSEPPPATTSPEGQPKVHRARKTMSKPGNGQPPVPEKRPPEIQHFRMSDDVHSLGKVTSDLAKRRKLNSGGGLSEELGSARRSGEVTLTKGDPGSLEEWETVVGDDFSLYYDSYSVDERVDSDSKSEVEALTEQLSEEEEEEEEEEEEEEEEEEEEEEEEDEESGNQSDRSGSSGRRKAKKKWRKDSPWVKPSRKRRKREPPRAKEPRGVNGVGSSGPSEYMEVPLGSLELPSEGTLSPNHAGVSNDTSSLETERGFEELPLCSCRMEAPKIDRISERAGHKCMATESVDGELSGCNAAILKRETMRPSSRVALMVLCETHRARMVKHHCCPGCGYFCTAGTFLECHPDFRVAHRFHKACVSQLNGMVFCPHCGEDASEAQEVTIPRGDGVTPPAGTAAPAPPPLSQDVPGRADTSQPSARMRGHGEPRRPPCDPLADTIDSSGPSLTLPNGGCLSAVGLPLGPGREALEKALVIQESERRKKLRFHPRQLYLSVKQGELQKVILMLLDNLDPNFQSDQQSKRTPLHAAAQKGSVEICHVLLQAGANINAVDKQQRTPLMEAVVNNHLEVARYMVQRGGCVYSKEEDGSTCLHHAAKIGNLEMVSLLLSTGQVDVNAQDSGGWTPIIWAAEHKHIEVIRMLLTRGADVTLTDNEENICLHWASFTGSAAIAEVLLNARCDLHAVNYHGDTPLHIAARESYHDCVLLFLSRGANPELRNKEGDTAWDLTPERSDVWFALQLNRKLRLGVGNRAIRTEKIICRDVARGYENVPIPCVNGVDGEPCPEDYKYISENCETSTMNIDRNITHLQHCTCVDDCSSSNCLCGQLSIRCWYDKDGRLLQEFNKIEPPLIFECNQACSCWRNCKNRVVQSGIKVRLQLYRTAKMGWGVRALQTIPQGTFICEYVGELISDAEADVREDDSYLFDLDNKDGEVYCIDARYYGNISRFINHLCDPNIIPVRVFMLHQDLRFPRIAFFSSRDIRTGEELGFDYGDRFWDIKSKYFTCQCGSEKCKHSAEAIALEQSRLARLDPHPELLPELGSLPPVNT", "test": "Competitive affinity-based chemoproteomics (UNC0965 matrix), PBMC cell extract", "assay_type": "binding", "set-up": "endogenous in cells", "conditions": "20 µM competitor", "experimental": "described.[2] Lysates were precleared with bead slurry (100 μL) for 30 min at 4 °C and then treated with UNC0638 or UNC0737 (20 μM) or DMSO control for 30 min at 4 °C followed by incubation with affinity matrix for 2 h at 4 °C. Affinity matrices were washed with buffer A (5 mL) and proteins eluted with 100 μL of 2x Laemmli sample buffer, 100 mM DTT, in PBS and heating for 10 min at 90 °C.\nEluents (70 µL) were diluted in 0.1 M Tris (pH 7.8) to 200 µL, reduced with 5 mM DTT for 30 min at RT, and alkylated with 20 mM iodoacetamide for 30 min at RT in the dark. Proteins were precipitated by sequential addition of MeOH (600 µL), CHCl3 (150 µL) and H2O (450 µL), pelleted (17,000 × g, 5 min), washed with further MeOH (2 × 600 µL), and re-pelleted. Air dried pellets were resuspended in 50 μL 6 M urea (pH 7.8) by vortexing and then diluted with 250 μL H2O before adding 1 µg trypsin for overnight incubation at 37 °C. The digests were acidified with FA (1% v/v final concentration), desalted using SOLA HRP SPE Cartridges (Thermo Fisher), eluted with 69% v/v MeCN, 0.1% v/v FA in H2O (600 μL) and dried in vacuo. Dried peptides were stored at -20 °C before resuspension in 2% v/v MeCN, 0.1% v/v FA in H2O (20 μL) for LC-MS/MS analysis.\nLC-MS/MS Data Acquisition\nDigested samples were analysed by nano-UPLC–MS/MS using a Dionex Ultimate 3000 nano UPLC fitted with an EASY spray column (75 μm × 500 mm, 2 μm particle size, Thermo Scientific), coupled to an Orbitrap Q Exactive instrument. […]\nRaw data was processed using MaxQuant[3] version 2.0.1.0 and the reference complete human proteome FASTA file (UniProt, downloaded 05.08.21). Label Free Quantification (LFQ) and Match Between Runs were selected; Cysteine carbamidomethylation was selected as a fixed modification, and methionine oxidation and asparagine deamidation as variable modifications. Default settings for identification and quantification were used. […]\nmode selected for both identification and quantification of proteins (razor peptides are uniquely assigned to protein groups and not to individual proteins).", "data": [{"smiles": "COc1cc2c(NC3CCN(C(C)C)CC3)nc(C3CCCCC3)nc2cc1OCCCN1CCCC1", "note": "[UNC0638]", "values": [{"measurement": "EHMT2 (G9a) binding to the matrix", "result": "reduced binding to the matrix"}]}]}
